In ChEMBL document CHEMBL4219190, “Studies on synthesis of novel pyrido[2,3-d]pyrimidine derivatives, evaluation of their antimicrobial activity and molecular docking” (Bioorg Med Chem Lett, 2018):
Values after ≈ are worked out from the molar mass of the structure shown. Active and inactive are the calls of the source. The calls are words filed in the database; no cut-off is given here.

Assays:
Candida parapsilosis [1] = experiment: Fungicidal activity against Candida parapsilosis MTCC 1744 incubated for 24 hrs followed by transfer of microbial suspension to Sabouraud dextrose agar plates and measured after 24 hrs post transfer; type: functional; conditions: Lodderomyces parapsilosis, MTCC 1744, 24 h
Candida albicans [2] = experiment: Antifungal activity against Candida albicans MTCC 3958 after 24 hrs by well diffusion method; type: functional; conditions: MTCC 3958, 24 h
Staphylococcus aureus [3] = experiment: Bactericidal activity against Staphylococcus aureus MLS16 MTCC 2940 incubated for 24 hrs followed by transfer of microbial suspension to Mueller Hinton agar plates and measured after 24 hrs post transfer; type: functional; conditions: MLS16 MTCC 2940, 24 h
Candida albicans [4] = experiment: Fungicidal activity against Candida albicans MTCC 1637 incubated for 24 hrs followed by transfer of microbial suspension to Sabouraud dextrose agar plates and measured after 24 hrs post transfer; type: functional; conditions: MTCC 1637, 24 h
Micrococcus luteus [5] = experiment: Antibacterial activity against Micrococcus luteus MTCC 2470 after 24 hrs by well diffusion method; type: functional; conditions: MTCC 2470, 24 h
Candida albicans [6] = experiment: Fungicidal activity against Candida albicans MTCC 7315 incubated for 24 hrs followed by transfer of microbial suspension to Sabouraud dextrose agar plates and measured after 24 hrs post transfer; type: functional; conditions: MTCC 7315, 24 h
Nakaseomyces glabratus [7] = experiment: Fungicidal activity against Candida glabrata MTCC 3019 incubated for 24 hrs followed by transfer of microbial suspension to Sabouraud dextrose agar plates and measured after 24 hrs post transfer; type: functional
Candida albicans [8] = experiment: Antifungal activity against Candida albicans MTCC 3018 after 24 hrs by well diffusion method; type: functional; conditions: MTCC 3018, 24 h
Candida albicans [9] = experiment: Fungicidal activity against Candida albicans MTCC 183 incubated for 24 hrs followed by transfer of microbial suspension to Sabouraud dextrose agar plates and measured after 24 hrs post transfer; type: functional; conditions: MTCC 183, 24 h
Candida albicans [10] = experiment: Antifungal activity against Candida albicans MTCC 854 after 24 hrs by well diffusion method; type: functional; conditions: MTCC 854, 24 h
Escherichia coli [11] = experiment: Antibacterial activity against Escherichia coli MTCC 739 after 24 hrs by well diffusion method; type: functional; conditions: MTCC 739, 24 h
Bacillus subtilis [12] = experiment: Antibiofilm activity against Bacillus subtilis MTCC 121 after 24 hrs by crystal violet staining-based assay; type: functional, organism-based; conditions: Bacillus subtilis, MTCC 121, 24 h; read-out: IC50
Pichia kudriavzevii [13] = experiment: Antifungal activity against Candida krusei MTCC 3020 after 24 hrs by well diffusion method; type: functional
Candida albicans [14] = experiment: Fungicidal activity against Candida albicans MTCC 227 incubated for 24 hrs followed by transfer of microbial suspension to Sabouraud dextrose agar plates and measured after 24 hrs post transfer; type: functional; conditions: MTCC 227, 24 h
Candida albicans [15] = experiment: Antifungal activity against Candida albicans MTCC 7315 after 24 hrs by well diffusion method; type: functional; conditions: MTCC 7315, 24 h
Pichia sporocuriosa [16] = experiment: Fungicidal activity against Issatchenkia hanoiensis MTCC 4755 incubated for 24 hrs followed by transfer of microbial suspension to Sabouraud dextrose agar plates and measured after 24 hrs post transfer; type: functional; conditions: MTCC 4755, 24 h
Raoultella planticola [17] = experiment: Antibiofilm activity against Klebsiella planticola MTCC 530 after 24 hrs by crystal violet staining-based assay; type: functional, organism-based; conditions: Klebsiella planticola, MTCC 530, 24 h; read-out: IC50
Pseudomonas aeruginosa [18] = experiment: Antibiofilm activity against Pseudomonas aeruginosa MTCC 2453 after 24 hrs by crystal violet staining-based assay; type: functional, organism-based; conditions: Pseudomonas aeruginosa, MTCC 2453, 24 h; read-out: IC50
Candida albicans [19] = experiment: Antifungal activity against Candida albicans MTCC 183 after 24 hrs by well diffusion method; type: functional; conditions: MTCC 183, 24 h
Candida albicans [20] = experiment: Antifungal activity against Candida albicans MTCC 227 after 24 hrs by well diffusion method; type: functional; conditions: MTCC 227, 24 h
Candida albicans [21] = experiment: Fungicidal activity against Candida albicans MTCC 854 incubated for 24 hrs followed by transfer of microbial suspension to Sabouraud dextrose agar plates and measured after 24 hrs post transfer; type: functional; conditions: MTCC 854, 24 h
Staphylococcus aureus [22] = experiment: Antibacterial activity against Staphylococcus aureus MLS16 MTCC 2940 after 24 hrs by well diffusion method; type: functional; conditions: MLS16 MTCC 2940, 24 h
Nakaseomyces glabratus [23] = experiment: Antifungal activity against Candida glabrata MTCC 3019 after 24 hrs by well diffusion method; type: functional
Candida parapsilosis [24] = experiment: Antifungal activity against Candida parapsilosis MTCC 1744 after 24 hrs by well diffusion method; type: functional; conditions: MTCC 1744, 24 h
Pseudomonas aeruginosa [25] = experiment: Antibacterial activity against Pseudomonas aeruginosa MTCC 2453 after 24 hrs by well diffusion method; type: functional; conditions: MTCC 2453, 24 h
Pichia sporocuriosa [26] = experiment: Antifungal activity against Issatchenkia hanoiensis MTCC 4755 after 24 hrs by well diffusion method; type: functional; conditions: MTCC 4755, 24 h
Raoultella planticola [27] = experiment: Antibacterial activity against Klebsiella planticola MTCC 530 after 24 hrs by well diffusion method; type: functional; conditions: MTCC 530, 24 h
Escherichia coli [28] = experiment: Bactericidal activity against Escherichia coli MTCC 739 incubated for 24 hrs followed by transfer of microbial suspension to Mueller Hinton agar plates and measured after 24 hrs post transfer; type: functional; conditions: MTCC 739, 24 h
[Candida] aaseri [29] = Antifungal activity against Candida aaseri MTCC 1962 after 24 hrs by well diffusion method; type: functional; conditions: Yamadazyma aaseri, MTCC 1962, 24 h
Candida albicans [30] = experiment: Fungicidal activity against Candida albicans MTCC 3958 incubated for 24 hrs followed by transfer of microbial suspension to Sabouraud dextrose agar plates and measured after 24 hrs post transfer; type: functional; conditions: MTCC 3958, 24 h
Candida albicans [31] = experiment: Antifungal activity against Candida albicans MTCC 3017 after 24 hrs by well diffusion method; type: functional; conditions: MTCC 3017, 24 h
Pichia kudriavzevii [32] = experiment: Fungicidal activity against Candida krusei MTCC 3020 incubated for 24 hrs followed by transfer of microbial suspension to Sabouraud dextrose agar plates and measured after 24 hrs post transfer; type: functional
Candida albicans [33] = experiment: Antifungal activity against Candida albicans MTCC 4748 after 24 hrs by well diffusion method; type: functional; conditions: MTCC 4748, 24 h
Raoultella planticola [34] = experiment: Bactericidal activity against Klebsiella planticola MTCC 530 incubated for 24 hrs followed by transfer of microbial suspension to Mueller Hinton agar plates and measured after 24 hrs post transfer; type: functional; conditions: MTCC 530, 24 h
Bacillus subtilis [35] = experiment: Bactericidal activity against Bacillus subtilis MTCC 121 incubated for 24 hrs followed by transfer of microbial suspension to Mueller Hinton agar plates and measured after 24 hrs post transfer; type: functional; conditions: MTCC 121, 24 h
Staphylococcus aureus [36] = experiment: Antibacterial activity against Staphylococcus aureus MTCC 96 after 24 hrs by well diffusion method; type: functional; conditions: MTCC 96, 24 h
Staphylococcus aureus [37] = experiment: Antibiofilm activity against Staphylococcus aureus MTCC 96 after 24 hrs by crystal violet staining-based assay; type: functional, organism-based; conditions: Staphylococcus aureus, MTCC 96, 24 h; read-out: IC50
Candida albicans [38] = experiment: Antifungal activity against Candida albicans MTCC 1637 after 24 hrs by well diffusion method; type: functional; conditions: MTCC 1637, 24 h
Micrococcus luteus [39] = experiment: Bactericidal activity against Micrococcus luteus MTCC 2470 incubated for 24 hrs followed by transfer of microbial suspension to Mueller Hinton agar plates and measured after 24 hrs post transfer; type: functional; conditions: MTCC 2470, 24 h
Candida albicans [40] = experiment: Fungicidal activity against Candida albicans MTCC 3018 incubated for 24 hrs followed by transfer of microbial suspension to Sabouraud dextrose agar plates and measured after 24 hrs post transfer; type: functional; conditions: MTCC 3018, 24 h
Bacillus subtilis [41] = experiment: Antibacterial activity against Bacillus subtilis MTCC 121 after 24 hrs by well diffusion method; type: functional; conditions: MTCC 121, 24 h
Staphylococcus aureus [42] = experiment: Antibiofilm activity against Staphylococcus aureus MLS16 MTCC 2940 after 24 hrs by crystal violet staining-based assay; type: functional, organism-based; conditions: Staphylococcus aureus, MLS16 MTCC 2940, 24 h; read-out: IC50
Candida albicans [43] = experiment: Fungicidal activity against Candida albicans MTCC 4748 incubated for 24 hrs followed by transfer of microbial suspension to Sabouraud dextrose agar plates and measured after 24 hrs post transfer; type: functional; conditions: MTCC 4748, 24 h
Candida albicans [44] = experiment: Inhibition of ergosterol in Candida albicans MTCC 183 after 20 hrs by UV spectrophotometric method; type: functional, organism-based
Staphylococcus aureus [45] = experiment: Bactericidal activity against Staphylococcus aureus MTCC 96 incubated for 24 hrs followed by transfer of microbial suspension to Mueller Hinton agar plates and measured after 24 hrs post transfer; type: functional; conditions: MTCC 96, 24 h
[Candida] aaseri [46] = Fungicidal activity against Candida aaseri MTCC 1962 incubated for 24 hrs followed by transfer of microbial suspension to Sabouraud dextrose agar plates and measured after 24 hrs post transfer; type: functional; conditions: Yamadazyma aaseri, MTCC 1962, 24 h
Pseudomonas aeruginosa [47] = experiment: Bactericidal activity against Pseudomonas aeruginosa MTCC 2453 incubated for 24 hrs followed by transfer of microbial suspension to Mueller Hinton agar plates and measured after 24 hrs post transfer; type: functional; conditions: MTCC 2453, 24 h
Candida albicans [48] = experiment: Fungicidal activity against Candida albicans MTCC 3017 incubated for 24 hrs followed by transfer of microbial suspension to Sabouraud dextrose agar plates and measured after 24 hrs post transfer; type: functional; conditions: MTCC 3017, 24 h

CN1CCN(C(=O)c2nc(-c3ccccc3)c3c(C(F)(F)F)cc(-c4ccccc4)nc3n2)CC1
MFC (Candida parapsilosis [1]): 62.5 µg/mL (≈ 131 µM) | MIC (Candida albicans [2]): 7.8 µg/mL (≈ 16.3 µM) | MBC (Staphylococcus aureus [3]): 31.2 µg/mL (≈ 65.3 µM) | MFC (Candida albicans [4]): 15.6 µg/mL (≈ 32.7 µM) | MIC (Micrococcus luteus [5]): 15.6 µg/mL (≈ 32.7 µM) | MFC (Candida albicans [6]): 62.5 µg/mL (≈ 131 µM) | MFC (Nakaseomyces glabratus [7]): inactive | MIC (Candida albicans [8]): 15.6 µg/mL (≈ 32.7 µM) | MFC (Candida albicans [9]): 3.9 µg/mL (≈ 8.17 µM) | MIC (Candida albicans [10]): 7.8 µg/mL (≈ 16.3 µM) | MIC (Escherichia coli [11]): 15.6 µg/mL (≈ 32.7 µM) | IC50 (Bacillus subtilis [12]): 10.8 µg/mL (≈ 22.6 µM) | MIC (Pichia kudriavzevii [13]): inactive | MFC (Candida albicans [14]): 7.8 µg/mL (≈ 16.3 µM) | MIC (Candida albicans [15]): 31.2 µg/mL (≈ 65.3 µM) | MFC (Pichia sporocuriosa [16]): 31.2 µg/mL (≈ 65.3 µM) | IC50 (Raoultella planticola [17]): 21.6 µg/mL (≈ 45.2 µM) | IC50 (Pseudomonas aeruginosa [18]): 21.6 µg/mL (≈ 45.2 µM) | MIC (Candida albicans [19]): 3.9 µg/mL (≈ 8.17 µM) | MIC (Candida albicans [20]): 3.9 µg/mL (≈ 8.17 µM) | MFC (Candida albicans [21]): 15.6 µg/mL (≈ 32.7 µM) | MIC (Staphylococcus aureus [22]): 15.6 µg/mL (≈ 32.7 µM) | MIC (Nakaseomyces glabratus [23]): inactive | MIC (Candida parapsilosis [24]): 31.2 µg/mL (≈ 65.3 µM) | MIC (Pseudomonas aeruginosa [25]): 31.2 µg/mL (≈ 65.3 µM) | MIC (Pichia sporocuriosa [26]): 15.6 µg/mL (≈ 32.7 µM) | MIC (Raoultella planticola [27]): 31.2 µg/mL (≈ 65.3 µM) | MBC (Escherichia coli [28]): 31.2 µg/mL (≈ 65.3 µM) | MIC ([Candida] aaseri [29]): 7.8 µg/mL (≈ 16.3 µM) | MFC (Candida albicans [30]): 15.6 µg/mL (≈ 32.7 µM) | MIC (Candida albicans [31]): 3.9 µg/mL (≈ 8.17 µM) | MFC (Pichia kudriavzevii [32]): inactive | MIC (Candida albicans [33]): 15.6 µg/mL (≈ 32.7 µM) | MBC (Raoultella planticola [34]): 62.4 µg/mL (≈ 131 µM) | MBC (Bacillus subtilis [35]): 31.2 µg/mL (≈ 65.3 µM) | MIC (Staphylococcus aureus [36]): 7.8 µg/mL (≈ 16.3 µM) | IC50 (Staphylococcus aureus [37]): 5.4 µg/mL (≈ 11.3 µM) | MIC (Candida albicans [38]): 7.8 µg/mL (≈ 16.3 µM) | MBC (Micrococcus luteus [39]): 15.6 µg/mL (≈ 32.7 µM) | MFC (Candida albicans [40]): 31.2 µg/mL (≈ 65.3 µM) | MIC (Bacillus subtilis [41]): 15.6 µg/mL (≈ 32.7 µM) | IC50 (Staphylococcus aureus [42]): 10.8 µg/mL (≈ 22.6 µM) | MFC (Candida albicans [43]): 31.2 µg/mL (≈ 65.3 µM) | inhibition (Candida albicans [44]): Dose-dependent effect | MBC (Staphylococcus aureus [45]): 15.6 µg/mL (≈ 32.7 µM) | MFC ([Candida] aaseri [46]): 15.6 µg/mL (≈ 32.7 µM) | MBC (Pseudomonas aeruginosa [47]): 62.4 µg/mL (≈ 131 µM) | MFC (Candida albicans [48]): 7.8 µg/mL (≈ 16.3 µM)
